From patent publication US4259235A, “Tricyclic nitrogenous compounds having string plant growth regulating properties” (BASF Aktiengesellschaft, priority 1977, dated 1981)
Like-named read-outs stand apart in the source and are kept apart here.

Key:
Arachys hypogaea = experiment: Shoot growth, postemergence treatment in the greenhouse (table 25); type: in vivo
Experimental: (§1) Plastic flowerpots having a volume of 300 cm^3 were filled with a sandy loam and the test plants placed therein (either as seed, as vegetatively reproduced species, or as potted plants, e.g., vines). For preemergence treatment, the active ingredients were suspended or emulsified in water as vehicle and sprayed onto the surface of the soil immediately after sowing by means of finely distributing nozzles. The potted vines were treated by spraying them with the correspondingly diluted liquor. For postemergence treatment, the agents were, as stated above, sprayed in water onto the leaves of the test plants, some liquor also falling onto the soil. In some special cases, solid active ingredients were first dissolved in dimethylformamide and then applied in a total liquor amount of 400 liters of water per hectare. For the postemergence treatment, the plants were first grown to a height of from 3 to 10 cm before being treated. With grasses, the first growth was cut, and the new growth treated 2 to 3 days after cutting. The temperature requirements of the plants were taken into account by placing them in cooler or warmer sections of the greenhouse. The experiments were run for from 4 to 6 weeks, during which time the plants were tended and their reaction to the various treatments was assessed.
(§2) The application rates are given in kg/ha of active ingredient, regardless of the method of application and the amount of water used.
(§3) A 0 to 100 scale was used for the evaluation, 0 denoting normal emergence or no damage (or no inhibition), and 100 denoting non-emergence or complete destruction of the plants. A distinction should be made in the influence on growth between desired changes without any appreciable disadvantageous phytotoxic effects (e.g., purely growth-regulating effects) and those of a phytotoxic herbicical character.

Oryza sativa = experiment: as above; type: in vivo
Experimental: as §1, §2, §3

Poa pratensis [1] = experiment: as above; type: in vivo
Experimental: as §1, §2, §3

Arachys hypog. = experiment: Shoot inhibition, pre- and postemergence treatment (table 28); type: in vivo, Arachys hypogaea; conditions: post-emergence, read-out: % shoot inhibition
Experimental: as §1, §2, §3

Glycine max = experiment: as above; type: in vivo; conditions: post-emergence, read-out: % shoot inhibition
Experimental: as §1, §2, §3

Euphorbia genic. = experiment: as above; type: in vivo, Euphorbia geniculata; conditions: post-emergence, read-out: % shoot inhibition
Experimental: as §1, §2, §3

Cynodon dactyl. = experiment: as above; type: in vivo, Cynodon dactylon; conditions: post-emergence, from seed, read-out: % shoot inhibition
Experimental: as §1, §2, §3

Lolium mult. = experiment: Herbicidal action, pre- and postemergence application in the greenhouse; type: in vivo; conditions: Lolium, post-emergence, read-out: % damage
Experimental: as §1, §2, §3

Mentha piper. = experiment: as above; type: in vivo; conditions: post-emergence; 3.0 kg/ha POST; read-out: % damage
Experimental: as §1, §2, §3

Sinapis alba = experiment: as above; type: in vivo; conditions: post-emergence, 3.0 kg/ha PRE, read-out: % damage
Experimental: as §1, §2, §3

Ipom. spp. = experiment: as above; type: in vivo, Ipomoea spp.; conditions: Ipomoea, post-emergence; 3.0 kg/ha POST; read-out: % damage
Experimental: as §1, §2, §3

Galium apar. = experiment: as above; type: in vivo, Galium aparine; conditions: post-emergence, read-out: % damage
Experimental: as §1, §2, §3

Cynodon dactylon = experiment: Shoot growth, postemergence treatment in the greenhouse (table 26); type: in vivo; conditions: from seed
Experimental: as §1, §2, §3

Hordeum vulgare = experiment: as above; type: in vivo
Experimental: as §1, §2, §3

Poa pratensis [2] = experiment: as above; type: in vivo
Experimental: as §1, §2, §3

Cynodon dact. (seed) = experiment: Herbicidal action, pre- and postemergence application in the greenhouse; type: in vivo, Cynodon dactylon; conditions: appln. rate 2 kg/ha, POST line
Experimental: as §1, §2, §3

Structure (SMILES)	pest or weed control at 3000 g/ha (Lolium mult.; 3.0 kg/ha POST)	pest or weed control at 3000 g/ha (Lolium mult.; 3.0 kg/ha PRE)	pest or weed control at 3000 g/ha (Mentha piper.)	pest or weed control at 3000 g/ha (Sinapis alba)	pest or weed control at 3000 g/ha (Ipom. spp.)	pest or weed control at 3000 g/ha (Galium apar.; 3.0 kg/ha POST)	also measured
C[N+](C)(C)CCCl [[ClCH2CH2N⊕(CH3)3]⊖, reference compound]							Shoot length (Arachys hypogaea; 1.0 kg/ha): 16 cm; Shoot length (Arachys hypogaea; 2.0 kg/ha): 16 cm; Shoot length (Arachys hypogaea; 4.0 kg/ha): 16 cm; Shoot length (Oryza sativa; 1.0 kg/ha): 20 cm; Shoot length (Oryza sativa; 2.0 kg/ha): 20 cm; Shoot length (Oryza sativa; 4.0 kg/ha): 20 cm; Shoot length (Poa pratensis [1]; 1.0 kg/ha): 4 cm; Shoot length (Poa pratensis [1]; 2.0 kg/ha): 4 cm; Shoot length (Poa pratensis [1]; 4.0 kg/ha): 3 cm
CN(C)NC(=O)CCC(=O)O [drawing 439]							inhibition at 1000 g/ha (Arachys hypog.; 1.0 kg/ha POST): 30%; inhibition at 1000 g/ha (Arachys hypog.; 1.0 kg/ha PRE): 50%; inhibition at 2000 g/ha (Arachys hypog.; 2.0 kg/ha POST): 30%; inhibition at 2000 g/ha (Arachys hypog.; 2.0 kg/ha PRE): 50%; inhibition at 1000 g/ha (Glycine max; 1.0 kg/ha PRE): 0%; inhibition at 2000 g/ha (Glycine max; 2.0 kg/ha PRE): 0%; inhibition at 1000 g/ha (Euphorbia genic.; 1.0 kg/ha PRE): 0%; inhibition at 2000 g/ha (Euphorbia genic.; 2.0 kg/ha PRE): 0%; inhibition at 1000 g/ha (Cynodon dactyl.; 1.0 kg/ha POST): 20%; inhibition at 2000 g/ha (Cynodon dactyl.; 2.0 kg/ha POST): 20%
[O-][N+]1=NC2C3CC(C(Br)C3Br)C21 (stereo not shown)	85%	80%	95%	80%	60%	40%	
O=C1NC2C3CC(C(Br)C3Br)C12 (stereo not shown)	95%		40%		95%	70%	
OC1C2CC(C3N=NC23)C1Nc1ccc(Cl)cc1 (stereo not shown)							Shoot length (Cynodon dactylon; 1.0 kg/ha): 6 cm; Shoot length (Cynodon dactylon; 2.0 kg/ha): 6 cm; Shoot length (Hordeum vulgare; 0.5 kg/ha): 16 cm; Shoot length (Hordeum vulgare; 1.0 kg/ha): 15 cm; Shoot length (Hordeum vulgare; 2.0 kg/ha): 14 cm; Shoot length (Poa pratensis [2]; 1.0 kg/ha): 13 cm; Shoot length (Poa pratensis [2]; 2.0 kg/ha): 13 cm
C1C2C3N=NC3C1C1OC21 (stereo not shown) [drawing 445]	100%	95%	100%	90%	100%	60%	
CC(=O)OC1C2CC(C3N=NC23)C1Nc1ccc(Br)cc1 (stereo not shown)	100%	80%	95%	100%	85%		pest or weed control at 3000 g/ha (Galium apar.): 65%
Cc1ccc(NC2C(Cl)C3CC2C2N=NC32)cc1 (stereo not shown)	100%	80%	100%	100%	100%	75%	
c1ccc(C2=NOC3C4CC(C5N=NC45)C23)cc1 (stereo not shown) [drawing 453]	100%	100%	75%	90%	100%	95%	% damage (Cynodon dact. (seed)): 100%
